Each structure is given as a SMILES string.

The text below walks through data of US20230373935A1, “MODULATORS OF CYSTIC FIBROSIS TRANSMEMBRANE CONDUCTANCE REGULATOR” (VERTEX PHARMACEUTICALS INCORPORATED, priority 2020, published 2023).

For the test, the target named is CFTR (Homo sapiens, UniProt P13569). The test is described as follows: standard Ussing Chamber Assay for CFTR potentiator activity. Format: cell-based.
Sequence of CFTR (P13569 whole entry): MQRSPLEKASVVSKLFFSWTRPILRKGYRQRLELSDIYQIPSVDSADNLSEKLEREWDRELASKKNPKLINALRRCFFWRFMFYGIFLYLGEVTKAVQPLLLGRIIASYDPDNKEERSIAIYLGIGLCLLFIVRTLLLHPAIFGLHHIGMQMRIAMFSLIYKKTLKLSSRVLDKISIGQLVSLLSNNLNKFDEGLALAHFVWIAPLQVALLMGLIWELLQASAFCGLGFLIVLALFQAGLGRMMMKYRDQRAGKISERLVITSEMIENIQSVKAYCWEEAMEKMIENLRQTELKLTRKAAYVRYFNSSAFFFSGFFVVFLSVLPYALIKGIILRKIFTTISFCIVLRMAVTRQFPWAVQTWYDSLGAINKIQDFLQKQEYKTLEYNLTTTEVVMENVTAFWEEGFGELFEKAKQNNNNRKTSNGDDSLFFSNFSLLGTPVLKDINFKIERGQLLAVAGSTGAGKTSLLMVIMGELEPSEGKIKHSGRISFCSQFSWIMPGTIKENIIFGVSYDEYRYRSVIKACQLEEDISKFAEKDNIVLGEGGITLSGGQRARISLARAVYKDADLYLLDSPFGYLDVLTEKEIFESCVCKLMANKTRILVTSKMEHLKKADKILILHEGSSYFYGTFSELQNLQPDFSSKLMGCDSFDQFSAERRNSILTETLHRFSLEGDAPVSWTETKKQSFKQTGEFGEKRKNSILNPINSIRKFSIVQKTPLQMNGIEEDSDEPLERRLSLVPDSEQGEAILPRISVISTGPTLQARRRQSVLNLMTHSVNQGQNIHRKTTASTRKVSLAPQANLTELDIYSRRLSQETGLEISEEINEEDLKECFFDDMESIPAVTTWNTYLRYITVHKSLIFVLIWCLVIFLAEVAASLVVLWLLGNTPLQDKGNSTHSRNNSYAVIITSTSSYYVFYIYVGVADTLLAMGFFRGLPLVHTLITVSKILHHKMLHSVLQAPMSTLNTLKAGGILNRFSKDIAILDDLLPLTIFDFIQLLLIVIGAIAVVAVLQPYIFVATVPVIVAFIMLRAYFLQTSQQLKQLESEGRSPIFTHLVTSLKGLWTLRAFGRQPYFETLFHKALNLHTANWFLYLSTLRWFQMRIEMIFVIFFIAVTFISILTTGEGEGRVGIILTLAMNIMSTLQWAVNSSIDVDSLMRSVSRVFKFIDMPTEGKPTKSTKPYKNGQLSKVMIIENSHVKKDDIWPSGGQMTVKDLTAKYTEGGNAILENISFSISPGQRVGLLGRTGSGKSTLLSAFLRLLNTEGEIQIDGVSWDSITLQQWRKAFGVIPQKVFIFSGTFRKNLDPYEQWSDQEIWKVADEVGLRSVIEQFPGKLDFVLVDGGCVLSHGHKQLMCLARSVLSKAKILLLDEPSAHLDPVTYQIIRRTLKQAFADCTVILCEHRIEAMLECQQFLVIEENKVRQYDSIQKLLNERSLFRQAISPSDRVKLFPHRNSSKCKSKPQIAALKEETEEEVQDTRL

For the compound `C[C@@H]1CCCCC[C@](O)(C(F)(F)F)C2=NN=C(O2)c2nc(c(C(F)(F)F)cc2N)O1` [(6R,12R)-17-amino-12-methyl-6,15-bis(trifluoromethyl)-13,19-dioxa-3,4,18-triazatricyclo[12.3.1.12,5]nonadeca-1(18),2,4,14,16-pentaen-6-ol], the CFTR modulatory activity result was “confirmed”.
